Counter-ions that a name gives are not always drawn.
target: T1, Rat brain protein farnesyltransferase (Rattus norvegicus, UniProt Q02293+Q04631); assay: % inhibition of farnesylation, scintillation proximity assay with biotin-K Ras B fragment; assay type: biochemical; details: Table 1; 1 × 10^-5 M
T1 construct: Rat brain protein farnesyltransferase activity is measured; from tissue; host or cells: rat brain
Outline: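 Scintillation proximity read-out of farnesylation, using a biotinylated K Ras B fragment (0.1 mM final) in place of biotin-lamin. Enzyme purified from rat brain; results given as % inhibition.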

T1 sequence (Q02293 whole entry, the tested form may be a part, one chain of several): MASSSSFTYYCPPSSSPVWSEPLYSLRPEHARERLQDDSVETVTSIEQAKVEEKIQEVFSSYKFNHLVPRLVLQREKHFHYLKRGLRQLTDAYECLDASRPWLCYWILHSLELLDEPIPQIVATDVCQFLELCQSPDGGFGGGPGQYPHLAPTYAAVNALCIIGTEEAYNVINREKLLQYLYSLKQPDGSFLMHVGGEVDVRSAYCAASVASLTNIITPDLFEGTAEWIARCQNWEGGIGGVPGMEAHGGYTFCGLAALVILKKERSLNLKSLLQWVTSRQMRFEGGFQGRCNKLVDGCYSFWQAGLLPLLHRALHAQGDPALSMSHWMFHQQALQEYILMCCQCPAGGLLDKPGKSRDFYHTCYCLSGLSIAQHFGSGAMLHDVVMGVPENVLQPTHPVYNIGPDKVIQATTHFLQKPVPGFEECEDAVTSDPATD

With `CSCC[C@H](NC(=O)c1ccc(NC(=O)[C@@H]2C[C@@H](O)CN2)cc1-c1ccccc1)C(=O)O` [Example 952] the “% inhibition at 1 × 10^-5 M” value was greater than 50%.

same assay, conditions: Table 2; 1 × 10^-6 M

In order of falling “% inhibition at 1 × 10^-6 M” value:
1. CSCC[C@H](NC(=O)c1ccc(CN2CCC(OCc3ccccc3)C2)cc1-c1ccccc1C)C(=O)O (some centres unmarked) [Example 988]  92%
2. CSCC[C@H](NC(=O)c1ccc(CN2CCCC(OCc3ccccc3)C2)cc1-c1ccccc1C)C(=O)O (some centres unmarked) [Example 989]  88%
3. CSCC[C@H](NC(=O)c1ccc(CNCc2ccccc2)cc1-c1ccccc1)C(=O)O.Cl [Example 936]  69%
4. CSCC[C@H](NC(=O)c1ccc(CN(C)C(C)(C)Cc2ccccc2)cc1-c1ccccc1C)C(=O)O [Example 982]  64%
5. CSCC[C@H](NC(=O)c1ccc(NC(=O)OCCCl)cc1-c1ccccc1)C(=O)O [Example 979]  26%

same assay, conditions: Table 3; 1 × 10^-7 M

In order of falling “% inhibition at 1 × 10^-7 M” value:
1. CSCC[C@H](NC(=O)c1ccc(CN2CCC[C@@H]2COCc2ccccc2)cc1-c1ccccc1C)C(=O)O [Example 993]  90%
2. CSCC[C@H](NC(=O)c1ccc(CN2CCCC(OCC3CCCCC3)C2)cc1-c1ccccc1C)C(=O)O (some centres unmarked) [Example 990]  84%
3. CCSCC(CC1CCCCC1)N(Cc1ccc(C(=O)N[C@@H](CCSC)C(=O)O)c(-c2ccccc2C)c1)CC(C)C (some centres unmarked) [Example 945]  80%
4. CCSC[C@H](CC1CCCCC1)N(Cc1ccc(C(=O)N[C@@H](CCSC)C(=O)O)c(-c2ccccc2C)c1)C(C)=O [Example 947]  79%
5. CCSC[C@H](CC1CCCCC1)N(Cc1ccc(C(=O)N[C@@H](CCSC)C(=O)O)c(-c2ccccc2C)c1)C(=O)OC(C)(C)C [Example 948]  75%
6. CCCCS(=O)(=O)N(Cc1ccc(C(=O)N[C@@H](CCSC)C(=O)O)c(-c2ccccc2C)c1)[C@H](CSCC)CC1CCCCC1 [Example 950]  71%
7. CCSC[C@H](CC1CCCCC1)N(Cc1ccc(C(=O)N[C@@H](CCSC)C(=O)O)c(-c2ccccc2C)c1)S(=O)(=O)c1ccccc1 [Example 951]  71%
8. CCSC[C@H](CC1CCCCC1)N(Cc1ccc(C(=O)N[C@@H](CCSC)C(=O)O)c(-c2ccccc2C)c1)C(=O)c1ccccc1 [Example 949]  57%

With `CSCC[C@H](NC(=O)c1ccc(NC[C@@H]2C[C@H](S)CN2)cc1-c1ccccc1)C(=O)O` [Example 959] the “% inhibition at 1 × 10^-7 M” value was greater than 50%.

same assay, conditions: Table 4; 1 × 10^-8 M

In order of rising “% inhibition at 1 × 10^-8 M” value:
1. CCSC[C@H](CC1CCCCC1)N(C=O)Cc1ccc(C(=O)N[C@@H](CCSC)C(=O)O)c(-c2ccccc2C)c1 [Example 946]  52%
2. CSCC[C@H](NC(=O)c1ccc(CN2CCC[C@H]2COc2ccccc2)cc1-c1ccccc1C)C(=O)O [Example 991]  69%
3. CCCCS(=O)(=O)N(Cc1ccc(C(=O)N[C@@H](CCSC)C(=O)O)c(-c2ccccc2C)c1)CC1CCCCC1 [Example 996]  80%
4. CCSC[C@H](CC1CCCCC1)N(C)Cc1ccc(C(=O)N[C@@H](CCSC)C(=O)O)c(-c2ccccc2C)c1 [Example 944]  88%
5. CCSC[C@H](CCc1ccccc1)NCc1ccc(C(=O)N[C@@H](CCSC)C(=O)O)c(-c2ccccc2C)c1 [Example 995]  92%
6. CSCC[C@H](NC(=O)c1ccc(CN2CCC[C@H]2COCC2CCCCC2)cc1-c1ccccc1C)C(=O)O [Example 992]  93%
7. CSCC[C@H](NC(=O)c1ccc(CN(CCC2CCCCC2)Cc2cncs2)cc1-c1ccccc1C)C(=O)O [Example 986]  95%

`CSCC[C@H](NC(=O)c1ccc(NC[C@H]2NCC[C@H]2S)cc1-c1ccccc1)C(=O)O` [Example 960] was tested, and the “% inhibition at 1 × 10^-8 M” value was greater than 50%.

same assay, conditions: read-out: % inhibition at 0.01 μM (**); Table 6; ** footnote 0.01 μM (title: 0.01 mM)

In order of rising inhibition at 0.01 µM:
1. COCCOCOC[C@H](CC1CCCCC1)OCc1ccc(C(=O)N[C@@H](CCSC)C(=O)O)c(-c2ccccc2C)c1 [Example 1050, N-[4-(3-cyclohexyl-1-(2-methoxyethoxymethyleneoxy)prop-2-yloxymethyl)-2-(2-methylphenyl)benzoyl]methionine, lithium salt]  62%
2. CSCC[C@H](NC(=O)c1ccc(CO[C@H](CO)CC2CCCCC2)cc1-c1ccccc1C)C(=O)O [Example 1049, N-[4-(3-cyclohexyl-1-hydroxyprop-2-yloxymethyl)-2-(2-methylphenyl)benzoyl]methionine, lithium salt]  93%

same assay, conditions: read-out: % inhibition at 0.1 μM (*); Table 6; * footnote 0.1 μM (title: 0.1 mM)

In order of rising inhibition at 0.1 µM:
1. CSCC[C@H](NC(=O)c1ccc(COCc2cccc(CO)c2)cc1-c1ccccc1C)C(=O)O [Example 1044, N-[4-(3-hydroxymethylbenzyloxymethyl)-2-(2-methylphenyl)benzoyl]methionine,lithium salt]  76%
2. CSCC[C@H](NC(=O)c1ccc(COCc2ccc(CO)cc2)cc1-c1ccccc1C)C(=O)O [Example 1045, N-[4-(4-hydroxymethylbenzyloxymethyl)-2-(2-methylphenyl)benzoyl]methionine,lithium salt]  86%
3. CSCC[C@H](NC(=O)c1ccc(COCc2ccccc2CO)cc1-c1ccccc1C)C(=O)O [Example 1043, N-[4-(2-hydroxymethylbenzyloxymethyl)-2-(2-methylphenyl)benzoyl]methionine,lithium salt]  90%

same assay, conditions: read-out: % inhibition at 1 × 10^-6 M; Table 2; 1 × 10^-6 M

In order of falling inhibition at 1 µM:
1. COc1ccc(CCOCc2ccc(C(=O)N[C@@H](CCSC)C(=O)O)c(-c3ccccc3C)c2)cc1 [Example 937, N-[4-(2-(4-methoxyphenyl)ethoxymethyl)-2-(2-methylphenylbenzoyl]methioninelithium salt]  95%
2. CSCC[C@H](NC(=O)c1ccc(COC2CCN(Cc3ccccc3)C2)cc1-c1ccccc1C)C(=O)O (some centres unmarked) [Example 987, N-[4-(1-benzylpyrrolidin-3-oxymethyl)-2-(2-methylphenyl)benzoyl]methionine]  93%

same assay, conditions: read-out: % inhibition at 1 × 10^-7 M

In order of rising inhibition at 0.1 µM:
1. COc1ccc(COCc2ccc(C(=O)N[C@@H](CCSC)C(=O)O)c(-c3ccccc3C)c2)cc1 [Example 935, N-[4-(4-methoxybenzyloxymethyl)-2-(2-methylphenyl)benzoyl]methionine lithium salt]  72%
2. CSCC[C@H](NC(=O)c1ccc(COCc2ccc(Cl)cc2)cc1-c1ccccc1C)C(=O)O [Example 933, N-[4-(4-chlorobenzyloxymethyl)-2-(2-methylphenyl)benzoyl]methionine lithium salt]  91%
3. CSCC[C@H](NC(=O)c1ccc(COCc2ccc(C(C)C)cc2)cc1-c1ccccc1C)C(=O)O [Example 940, N-[4-(4-isopropylbenzyloxymethyl)-2-(2-methylphenyl)benzoyl]methionine lithium salt]  92%
4. COc1ccccc1COCc1ccc(C(=O)N[C@@H](CCSC)C(=O)O)c(-c2ccccc2C)c1 [Example 931, N-[4-(2-methoxybenzyloxymethyl)-2-(2-methylphenyl)benzoyl]methionine lithium salt]  98%

same assay, conditions: read-out: % inhibition at 1 × 10^-7 M; Table 3; 1 × 10^-7 M

With `CSCC[C@H](NC(=O)c1ccc(COCc2cccc(N(C)C)c2)cc1-c1ccccc1C)C(=O)O` [Example 941, N-[4-(3-N,N-dimethylaminobenzyloxymethyl)-2-(2-methylphenyl)benzoyl]methionine lithium salt] the inhibition at 0.1 µM was 90%.

same assay, conditions: read-out: % inhibition at 1 × 10^-8 M

In order of rising inhibition at 0.01 µM:
1. CCCCC(CCCC)OCc1ccc(C(=O)N[C@@H](CCSC)C(=O)O)c(-c2ccccc2C)c1 [Example 942, N-[4-(nonan-5-yloxymethyl)-2-(2-methylphenyl)benzoyl]methionine lithium salt]  58%
2. COc1cccc(COCc2ccc(C(=O)N[C@@H](CCSC)C(=O)O)c(-c3ccccc3C)c2)c1 [Example 932, N-[4-(3-methoxybenzyloxymethyl)-2-(2-methylphenyl)benzoyl]methionine lithium salt]  60%
3. CSCC[C@H](NC(=O)c1ccc(COCc2ccccc2C(C)C)cc1-c1ccccc1C)C(=O)O [Example 938, N-[4-(2-isopropylbenzyloxymethyl)-2-(2-methylphenyl)benzoyl]methionine lithium salt]  61%
4. CSCC[C@H](NC(=O)c1ccc(COCc2ccccc2Cl)cc1-c1ccccc1C)C(=O)O [Example 930, N-[4-(2-chlorobenzyloxymethyl)-2-(2-methylphenyl)benzoyl]methionine lithium salt]  66%
5. CSCC[C@H](NC(=O)c1ccc(COCc2cccc(Cl)c2)cc1-c1ccccc1C)C(=O)O [Example 934, N-[4-(3-chlorobenzyloxymethyl)-2-(2-methylphenyl)benzoyl]methionine lithium salt]  71%
6. CSCC[C@H](NC(=O)c1ccc(COCc2cccc(C(C)C)c2)cc1-c1ccccc1C)C(=O)O [Example 939, N-[4-(3-isopropylbenzyloxymethyl)-2-(2-methylphenyl)benzoyl]methionine lithium salt]  72%

same assay, conditions: read-out: % inhibition at 1 × 10^-8 M; Table 4; 1 × 10^-8 M

In order of rising inhibition at 0.01 µM:
1. CCCCC(Cc1ccccc1Cl)OCc1ccc(C(=O)N[C@@H](CCSC)C(=O)O)c(-c2ccccc2C)c1 (some centres unmarked) [Example 943, N-[4-(1-(2-chlorophenyl)hexan-2-yloxymethyl)-2-(2-methylphenyl)benzoyl]methioninelithium salt]  79%
2. CSCC[C@H](NC(=O)c1ccc(CO[C@H](CSC(C)(C)C)Cc2ccccc2)cc1-c1ccccc1C)C(=O)O [Example 994, N-[4-(1-t-butylthio-3-phenylprop-2-oxymethyl)-2-(2-methylphenyl)benzoyl]methionine]  83%
3. CCCCC(OCc1ccc(C(=O)N[C@@H](CCSC)C(=O)O)c(-c2ccccc2C)c1)c1cncs1 (some centres unmarked) [Example 985]  89%

— patent publication US6204293A, “Inhibitors of protein isoprenyl transferases” (University of Pittsburgh, priority 1998, dated 2001)
